Counter-ions that a name gives are not always drawn. Like-named read-outs stand apart in the source and are kept apart here.
Target: T1, HCMV polymerase (Human cytomegalovirus, UniProt P08546)
T1 construct: made in house; host or cells: recombinant baculovirus-infected SF-9 insect cells
Assay: biochemical
Protocol: The HCMV polymerase assay is performed using a scintillation proximity assay (SPA) as described in several references, such as N. D. Cook, et al., Pharmaceutical Manufacturing International, pages 49-53 (1992); K. Takeuchi, Laboratory Practice, September issue (1992); U.S. Pat. No. 4,568,649 (1986); which are incorporated by reference herein. Reactions are performed in 96-well plates. The assay is conducted in 100 μl volume with 5.4 mM HEPES (pH 7.5), 11.7 mM KCl, 4.5 mM MgCl2, 0.36 mg/ml BSA, and 90 nM ^3 H-dTTP. Assays are run with and without CHAPS, (3-[(3-Cholamidopropyl)dimethylammonio]-1-propane-sulfonate) at a final concentration of 2 mM. HCMV polymerase is diluted in enzyme dilution buffer containing 50% glycerol, 250 mM NaCl, 10 mM HEPES (pH 7.5), 100 μg/ml BSA, and 0.01% sodium azide. The HCMV polymerase, which is expressed in recombinant baculovirus-infected SF-9 cells and purified according to literature procedures, is added at 10% (or 10 μl) of the final reaction volume, i.e., 100 μl. Compounds are diluted in 50% DMSO and 10 μl are added to each well. Control wells contain an equivalent concentration of DMSO. Unless noted otherwise, reactions are initiated via the addition of 6 nM biotinylated poly(dA)-oligo(dT) template/primer to reaction mixtures containing the enzyme, substrate, and compounds of interest. Plates are incubated in a 25 C. or 37 C. H2 O bath and terminated via the addition of 40 μl/reaction of 0.5 M EDTA (pH 8) per well. Reactions are terminated within the time-frame during which substrate incorporation is linear and varied depending upon the enzyme and conditions used, i.e., 30 min. for HCMV polymerase. Ten μl of streptavidin-SPA beads (20 mg/ml in PBS/10% glycerol) are added following termination of the reaction. Plates are incubated 10 min. at 37 C., then equilibrated to room temperature, and counted on a Packard Topcount. Linear regressions are performed and IC50 's are calculated using computer software.
A modified version of the above HCMV polymerase assay is performed as described above, but with the following changes: Compounds are diluted in 100% DMSO until final dilution into assay buffer. In the previous assay, compounds are diluted in 50% DMSO. 4.5 mM dithiotherotol (DTT) is added to the polymerase buffer.

[1] = HCMV polymerase, SPA, modified assay: compounds in 100% DMSO, 4.5 mM DTT

T1 sequence (P08546 whole entry): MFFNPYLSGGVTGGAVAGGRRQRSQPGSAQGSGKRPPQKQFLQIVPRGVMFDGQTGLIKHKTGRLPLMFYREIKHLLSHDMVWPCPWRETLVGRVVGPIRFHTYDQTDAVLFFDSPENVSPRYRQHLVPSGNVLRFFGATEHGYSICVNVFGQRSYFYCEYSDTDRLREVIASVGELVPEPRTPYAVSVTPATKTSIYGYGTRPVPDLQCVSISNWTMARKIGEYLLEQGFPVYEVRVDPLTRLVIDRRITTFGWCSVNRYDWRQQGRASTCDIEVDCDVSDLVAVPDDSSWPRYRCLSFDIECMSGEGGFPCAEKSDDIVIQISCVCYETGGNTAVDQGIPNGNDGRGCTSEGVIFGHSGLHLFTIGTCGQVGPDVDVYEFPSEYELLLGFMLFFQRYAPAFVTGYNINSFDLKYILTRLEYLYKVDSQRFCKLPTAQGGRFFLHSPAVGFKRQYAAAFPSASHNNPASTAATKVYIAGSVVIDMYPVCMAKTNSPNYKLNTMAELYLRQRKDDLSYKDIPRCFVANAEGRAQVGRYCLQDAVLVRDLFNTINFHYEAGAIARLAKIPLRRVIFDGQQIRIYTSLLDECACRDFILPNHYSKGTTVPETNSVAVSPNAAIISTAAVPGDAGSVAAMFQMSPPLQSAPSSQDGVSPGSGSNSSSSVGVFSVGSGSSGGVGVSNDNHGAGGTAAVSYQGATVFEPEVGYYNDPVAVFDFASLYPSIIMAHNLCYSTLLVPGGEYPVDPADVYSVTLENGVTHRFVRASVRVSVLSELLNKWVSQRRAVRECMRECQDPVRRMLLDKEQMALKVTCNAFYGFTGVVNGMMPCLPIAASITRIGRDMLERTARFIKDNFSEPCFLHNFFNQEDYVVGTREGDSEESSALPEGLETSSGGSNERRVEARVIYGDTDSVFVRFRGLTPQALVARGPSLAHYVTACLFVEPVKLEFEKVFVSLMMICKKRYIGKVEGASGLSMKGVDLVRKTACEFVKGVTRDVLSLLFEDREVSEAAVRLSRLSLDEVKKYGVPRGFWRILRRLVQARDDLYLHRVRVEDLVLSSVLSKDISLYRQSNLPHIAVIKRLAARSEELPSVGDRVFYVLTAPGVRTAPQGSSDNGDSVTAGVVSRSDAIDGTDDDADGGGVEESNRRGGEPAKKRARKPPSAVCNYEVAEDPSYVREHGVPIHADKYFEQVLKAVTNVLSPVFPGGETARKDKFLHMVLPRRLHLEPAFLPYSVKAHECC

| SMILES | IC50 [1] [nM] | IC50 [nM] |
| --- | --- | --- |
| CN1CCCC1CCn1cc(C(=O)NCc2ccc(Cl)cc2)c(=O)c2cc(C#CCO)ccc21 (stereo not shown) [Example 16, N-(4-Chlorobenzyl)-1,4-dihydro-6-(3-hydroxy-1-propynyl)-1-[2-(1-methyl-2-pyrrolindinyl)ethyl]-4-oxo3-quinolinecarboxamide] |  | 2800 |
| COCCOCCn1cc(C(=O)NCc2ccc(Cl)cc2)c(=O)c2cc(CN(C)[C@H](C)[C@@H](O)c3ccccc3)ccc21 [Example 88, N-(4-Chlorobenzyl)-6-{[[(1R,2S)-2-hydroxy-1-methyl-2-phenylethyl](methyl)amino]methyl}-1-[2-(2-methoxyethoxy)ethyl]-4-oxo-1,4-dihydro-3-quinolinecarboxamide] | 5900 |  |
| CCCn1cc(C(=O)NCc2ccc(Cl)cc2)c(=O)c2cc(C#CCO)ccc21 [Example 11, N-(4-Chlorobenzyl)-6-(3-hydroxy-1-propynyl)-4-oxo-1-propyl-1,4-dihydro-3-quinolinecarboxamide] | 1500 |  |
| O=C(NCc1ccc(Cl)cc1)c1cn(COc2ccc(Cl)cc2)c2ccc(CN3CCOCC3)cc2c1=O [Example 104, N-(4-Chlorobenzyl)-1-[(4-chlorophenoxy)methyl]-6-(4-morpholinylmethyl)-4-oxo-1,4-dihydro-3-quinolinecarboxamide] | 1600 |  |
| COCCOCCn1cc(C(=O)NCc2ccc(Cl)cc2)c(=O)c2cc(C#CCO)ccc21 [Example 42, N-(4-Chlorobenzyl)-6-(3-hydroxy-1-propynyl)-1-[2-(2-methoxyethoxy)ethyl]-4-oxo-1,4-dihydro-3-quinolinecarboxamide] | 1200 |  |
| CSCn1cc(C(=O)NCc2ccc(Cl)cc2)c(=O)c2cc(CN3CCOCC3)ccc21 [Example 73] | 1100 |  |
| O=C(NCc1ccc(Cl)cc1)c1cn(CCOCCN2CCOCC2)c2ccc(CN3CCOCC3)cc2c1=O [Example 100] | 2900 |  |
| COCCOCn1cc(C(=O)NCc2ccc(Cl)cc2)c(=O)c2cc(CN3CCOCC3)ccc21 [Example 105, N-(4-Chlorobenzyl)-1-[(2-methoxyethoxy)methyl]-6-(4-morpholinylmethyl)-4-oxo-1,4-dihydro-3-quinolinecarboxamide] | 1300 |  |
| O=C(NCc1ccc(Cl)cc1)c1cn(CCN2CCCC2)c2ccc(C#CCO)cc2c1=O [Example 18, N-(4-Chlorobenzyl)-6-(3-hydroxy-1-propynyl)-1-[2-(1-pyrolidinyl)ethyl]-4-oxo-1,4-dihydro-3-quinolinecarboxamide] |  | 2700 |
| Cn1cc(C(=O)NCc2ccc(Cl)cc2)c(=O)c2cc(CN3CCC(F)(F)CC3)ccc21 [Example 52, N-(4-chlorobenzyl)-6-((4,4-difluoro-1-piperidinyl)methyl)-1-methyl-4-oxo-1,4-dihydro-3-quinolinecarboxamide] | 9600 |  |
| O=C(NCc1ccc(Br)cc1)c1cn(N2CCOCC2)c2ccc(CN3CCOCC3)cc2c1=O [Example 124, N-(4-Bromobenzy)-1-(4-morpholinyl)-6-(4-morpholinylmethyl)-4-oxo-1,4-dihydro-3-quinolinecarboxamide] | 1200 |  |
| CN(C)CCn1cc(C(=O)NCc2ccc(Cl)cc2)c(=O)c2cc(C#CCO)ccc21 [Example 13, N-(4-Chlorobenzyl)-1-[2-(dimethylamino)ethyl]-6-(3-hydroxy-1-propynyl)-4-oxo-1,4-dihydro-3-quinolinecarboxamide, hydrochloride salt] | 2900 |  |
| C=Cn1cc(C(=O)NCc2ccc(Cl)cc2)c(=O)c2cc(C#CCO)ccc21 [Example 21, N-(4-Chlorobenzyl)-6-(3-hydroxy-1-propynyl)-4-oxo-1-vinyl-1,4-dihydro-3-quinolinecarboxamide] | 1400 |  |
| Cn1cc(C(=O)NCc2ccc(Cl)cc2)c(=O)c2cc(CN3CCOc4ccccc43)ccc21 [Example 49, N-(4-Chlorobenzyl)-6-(2,3-dihydro-4H-1,4-benzoxazin-4-ylmethyl)-1-methyl-4-oxo-1,4-dihydro-3-quinolinecarboxamide] | 2200 |  |
| Cn1cc(C(=O)NCc2ccc(Cl)cc2)c(=O)c2cc(CN=[N+]=[N-])ccc21 [Example 51, 6-(Azidomethyl)-N-(4-chlorobenzyl)-1-methyl-4-oxo-1,4-dihydro-3-quinolinecarboxamide] | 1300 |  |
| Cn1cc(C(=O)NCc2ccc(Cl)cc2)c(=O)c2cccc(C#CCO)c21 [Example 96, N-(4-Chlorobenzyl)-8-(3-hydroxy-1-propynyl)-1-methyl-4-oxo-1,4-dihydro-3-quinolinecarboxamide] | 1000 |  |
| COCCOCCn1cc(C(=O)NCc2ccc(Cl)cc2)c(=O)c2cc(CSC)ccc21 [Example 93, N-(4-Chlorobenzyl)-1-[2-(2-methoxyethoxy)ethyl]-6-[(methylsulfanyl)methyl]-4-oxo-1,4-dihydro-3-quinolinecarboxamide] | 6200 |  |
| C#CCn1cc(C(=O)NCc2ccc(Cl)cc2)c(=O)c2cc(CN3CCOCC3)ccc21 [Example 59, N-(4-Chlorobenzyl)-6-(4-morpholinylmethyl)-4-oxo-1-(2-propynyl)-1,4-dihydro-3-quinolinecarboxamide] | 1900 |  |

More lines, main results first:

| IC50 [1] [nM] | SMILES | IC50 [nM] |
| --- | --- | --- |
| 950 | O=C(NCc1ccc(Cl)cc1)c1cn(CCN(CCO)CCO)c2ccc(CN3CCOCC3)cc2c1=O [Example 64] |  |
| 500 | Nn1cc(C(=O)NCc2ccc(Cl)cc2)c(=O)c2cc(CCCO)ccc21 [Example 119, 1-Amino-N-(4-chlorobenzyl)-6-(3-hydroxypropyl)-4-oxo-1,4-dihydro-3-quinolinecarboxamide] |  |
| 480 | CN1CCC(n2cc(C(=O)NCc3ccc(Cl)cc3)c(=O)c3cc(CN4CCOCC4)ccc32)CC1 [Example 109, N-(4-Chlorobenzyl)-1-(1-methyl-4-piperidinyl)-6-(4-morpholinylmethyl)-4-oxo-1,4-dihydro-3-quinolinecarboxamide] |  |
| 300 | O=C(NCc1ccc(Cl)cc1)c1cn(CSc2ccc(Cl)cc2)c2ccc(CN3CCOCC3)cc2c1=O [Example 101, N-(4-Chlorobenzyl)-1-([(4-chlorophenyl)sulfanyl]methyl)-6-(4-morpholinylmethyl)-4-oxo-1,4-dihydro-3-quinolinecarboxamide] |  |
| 700 | CS(=O)(=O)CCCn1cc(C(=O)NCc2ccc(Cl)cc2)c(=O)c2cc(CN3CCOCC3)ccc21 [Example 67, N-(4-Chlorobenzyl)-1-[3-(methylsulfonyl)propyl]-6-(4-morpholinylmethyl)-4-oxo-1,4dihydro-3-quinolinecarboxamide] |  |
| 870 | O=C(NCc1ccc(Cl)cc1)c1cn(CCC[S+]([O-])CCCO)c2ccc(CN3CCOCC3)cc2c1=O (stereo not shown) [Example 70] |  |
| 930 | CC[S+]([O-])CCn1cc(C(=O)NCc2ccc(Cl)cc2)c(=O)c2cc(CN3CCOCC3)ccc21 (stereo not shown) [Example 68, N-(4-Chlorobenzyl)-1-[2-(ethylsulfinyl)ethyl]-6-(4-morpholinylmethyl)-4-oxo-1,4-dihydro-3-quinolinecarboxamide] |  |
| 770 | Cn1cc(C(=S)NCc2ccc(Cl)cc2)c(=O)c2cc(C#CCO)ccc21 [Example 94, N-(4-chlorobenzyl)-6-(3-hydroxy-1-propynyl)-1-methyl4-oxo-1,4-dihydro-3-quinolinecarbothioamide] |  |
| 730 | O=C(NCc1ccc(Cl)cc1)c1cn(C2CCS(=O)(=O)CC2)c2ccc(CN3CCOCC3)cc2c1=O [Example 111, N-(4-Chlorobenzyl)-1-(1,1-dioxohexahydro-thiopyran-4-yl)-6-(4-morpholinylmethyl)-4-oxo-1,4-dihydro-3-quinolinecarboxamide] |  |
| 840 | O=C(NCc1ccc(Cl)cc1)c1cn(COCCO)c2ccc(CN3CCOCC3)cc2c1=O [Example 107] |  |
| 1000 | O=C(O)Cn1cc(C(=O)NCc2ccc(Cl)cc2)c(=O)c2cc(C#CCO)ccc21 [Example 29, 2-[3-{[(4-Chlorobenzyl)amino]carbonyl}-6-(3-hydroxy-1-propynyl)-4-oxo-1(4H)-quinolinyl]acetic acid] |  |
| 620 | O=C(NCc1ccc(Cl)cc1)c1cn(N2CCCC2)c2ccc(CN3CCOCC3)cc2c1=O [Example 115, N-(4-Chlorobenzyl)-6-(4-morpholinylmethyl)-4-oxo-1-(1-pyrrolidinyl)-1,4-dihydro-3-quinolinecarboxamide] |  |
| 880 | O=C(NCc1ccc(Cl)cc1)c1cn(N2CCCCC2)c2ccc(CN3CCOCC3)cc2c1=O [Example 114, N-(4-Chlorobenzyl)-6-(4-morpholinylmethyl)-4-oxo-1-(1-piperidinyl)-1,4-dihydro-3-quinolinecarboxamide] |  |
